18 compounds from ChEMBL document CHEMBL1909638, “Amide isosteres in structure-activity studies of antibacterial minor groove binders” (2011) can be followed below.

Test [1] relates to Mycolicibacterium aurum. Description: Antimycobacterial activity against Mycobacterium aurum at 37 degC using Mueller-Hinton broth by resazurine microtiter assay. The class given is functional. In general terms: The colour change of resazurin is a common sign of viable cells or microbes.
In test [2] the test system is Staphylococcus aureus. The test is described as follows: Antibacterial activity against Staphylococcus aureus by resazurine microtiter assay. Type of test: functional.
Test [3] has as its system Nucleic Acid. The test is described as follows: Binding affinity to 5'-GCGATATATGCG-3' DNA sequence in PBS buffer of pH 7.4 assessed as increase in melting temperature by UV-VIS spectrophotometric analysis. Type of test: nucleic-acid assay.
Test [4] concerns Staphylococcus aureus. The test is described as follows: Antibacterial activity against Staphylococcus aureus at 200 uM by resazurine microtiter assay. Type of test: functional. Also on record: scale not given here.
The subject of test [5] is Nucleic Acid. Description: Binding affinity to 5'-GCGATATATGCG-3' DNA sequence in PBS buffer of pH 7.4 assessed as change in melting temperature by UV-VIS spectrophotometric analysis. Type of test: nucleic-acid assay.
Test [6] concerns Staphylococcus aureus. The test is described as follows: Antibacterial activity against Staphylococcus aureus isolate 1 by resazurine microtiter assay. The class given is functional.
Test [7] has as its system Staphylococcus aureus. The test is described as follows: Antibacterial activity against Staphylococcus aureus isolate 2 by resazurine microtiter assay. Type of test: functional.
Test [8] concerns Candida albicans. Description: Antifungal activity against Candida albicans by resazurine microtiter assay. Type of test: functional.
In test [9] the test system is Enterococcus faecalis. Description: Antibacterial activity against Streptococcus faecalis by resazurine microtiter assay. The class given is functional.
The subject of test [10] is Aspergillus niger. Description: Antifungal activity against Aspergillus niger by resazurine microtiter assay. Type of test: functional.

The structures appear in SMILES notation. Converted amounts (≈) assume the structure as drawn. Some results are limits rather than exact numbers.

For orientation: MIC means the lowest concentration found to suppress growth. Usually ΔTm stands for the change in melting temperature against a reference sample. `CCC(C)n1cc(NC(=O)c2cc(NC(=O)c3ccc(/C=C/c4ccc(OC)cc4)cn3)cn2C)cc1C(=O)NCCN1CCOCC1` (stereo not given): the MIC in test [1] and in test [2] was 16 µM (≈ 10.5 µg/mL) throughout. The ΔTm in test [3] stood at 13 °C. The Activity in test [4] is reported as 2.8%.

In the case of `CN(C)c1ccc(C(=O)Nc2ccc(C(=O)Nc3cc(C(=O)Nc4cc(C(=O)NCCN5CCOCC5)n(C)c4)n(C)c3)cc2)cc1`, the ΔTm in [5] is 18 °C.

For `COc1ccc(/C=C/c2ccc(C(=O)Nc3cc(C(=O)Nc4cc(C(=O)NCCN5CCOCC5)n(C)c4)n(C(C)C)c3)nc2)cc1`, the MIC in [1] turned out to be 8 µM (≈ 5.12 µg/mL); in [2] it was 16 µM (≈ 10.2 µg/mL). In addition, the ΔTm in [3] was found to be 19 °C. The same compound registered an Activity in [4] of 6.7%.

Turning to `Cn1cc(NC(=O)c2cc(NC(=O)c3ccc(NC(=O)c4cnc5ccccc5c4)cc3)cn2C)cc1C(=O)NCCN1CCOCC1`, in test [5], the ΔTm stood at 17 °C.

`COc1cccc(C(=O)Nc2ccc(C(=O)Nc3cc(C(=O)Nc4cc(C(=O)NCCN5CCOCC5)n(C)c4)n(C)c3)cc2)c1`: in test [5], the ΔTm worked out at 10 °C.

For the compound `CN(C)c1ccc(/C=C/c2ccc(C(=O)Nc3cc(C(=O)Nc4cc(C(=O)NCCN5CCOCC5)n(C)c4)n(C)c3)cc2)cc1`, the MIC was > 100 µM in test [6]; > 100 µM in test [7]; 100 µM (≈ 62.4 µg/mL) in test [8]; > 100 µM in test [9]; > 100 µM in test [10]. The ΔTm in test [5] was determined as 2 °C.

Take `CC(C)n1cc(NC(=O)c2ccc(/C=C/c3cnc4ccccc4c3)cc2)cc1C(=O)Nc1cc(C(=O)NCCN2CCOCC2)n(C)c1`: the minimum inhibitory concentration (MIC) in test [1] is 2 µM (≈ 1.32 µg/mL); in test [2], < 1 µM. In addition, in test [3], the ΔTm is 18 °C. The Activity in test [4] was 2.3%.

Regarding `CCC(C)n1cc(NC(=O)c2ccc(/C=C/c3cnc4ccccc4c3)cc2)cc1C(=O)Nc1cc(C(=O)NCCN2CCOCC2)n(C)c1` (stereo not given), the MIC is 2 µM (≈ 1.35 µg/mL) in test [1] and < 1 µM in test [2]. Also, the ΔTm in test [3] was 15 °C. Besides, in test [4], the Activity was 2.9%.

Turning to `CCC(C)n1cc(NC(=O)c2ccc(/C=C/c3ccc(OC)cc3)cn2)cc1C(=O)Nc1cc(C(=O)NCCN2CCOCC2)n(C)c1` (stereo not given), the values for the minimal inhibitory concentration (MIC) in test [1] and in [2] were 31 µM (≈ 20.3 µg/mL) and 8 µM (≈ 5.23 µg/mL), respectively. Further, in [3], the ΔTm is 16 °C. Besides, the Activity in test [4] is 3.2%.

For `COc1ccc(/C=C/c2ccc(C(=O)Nc3cc(C(=O)Nc4cc(C(=O)NCCN5CCOCC5)n(C)c4)n(C)c3)nc2)cc1`, in test [3], the ΔTm came to 16 °C.

Consider `COc1cccc(/N=N/c2ccc(C(=O)Nc3cc(C(=O)Nc4cc(C(=O)NCCN5CCOCC5)n(C)c4)n(C)c3)cc2)c1`, for which, in [5], the ΔTm was determined as 1 °C.

On to `Cn1cc(NC(=O)c2cc(NC(=O)c3ccc(/C=C/c4cnc5ccccc5c4)cc3)cn2C)cc1C(=O)NCCN1CCOCC1` [MGB-BP-3], for which the MIC in [6] turned out to be 3.1 µM (≈ 1.96 µg/mL); in [7] it was 12.5 µM (≈ 7.9 µg/mL); in test [8] it was 25 µM (≈ 15.8 µg/mL); in test [9] it was 25 µM (≈ 15.8 µg/mL); in test [10], 50 µM (≈ 31.6 µg/mL). The ΔTm was determined as 18 °C in test [5] and 19 °C in test [3].

In the case of `CC(C)n1cc(NC(=O)c2cc(NC(=O)c3ccc(/C=C/c4cnc5ccccc5c4)cc3)cn2C)cc1C(=O)NCCN1CCOCC1`, the results for the MIC in test [1] and in [2] were 2 µM (≈ 1.32 µg/mL) and < 1 µM, respectively. Moreover, in test [3], the ΔTm was 10 °C. This compound also came in with an Activity in [4] of 0.8%.

For the compound `CN(C)c1ccc(/N=N/c2ccc(C(=O)Nc3cc(C(=O)Nc4cc(C(=O)NCCN5CCOCC5)n(C)c4)n(C)c3)cc2)cc1`, the ΔTm in test [5] stood at 8 °C.

Regarding `CCC(C)n1cc(NC(=O)c2cc(NC(=O)c3ccc(/C=C/c4cnc5ccccc5c4)cc3)cn2C)cc1C(=O)NCCN1CCOCC1` (stereo not given), the thermal shift (ΔTm) in test [3] was 0 °C. Also, the Activity in test [4] was determined as 0.3%.

Take `COc1cccc(/C=C/c2ccc(C(=O)Nc3cc(C(=O)Nc4cc(C(=O)NCCN5CCOCC5)n(C)c4)n(C)c3)cc2)c1`: the MIC in test [6] came out at 12.5 µM (≈ 7.63 µg/mL); in test [7], 25 µM (≈ 15.3 µg/mL); in [8], 100 µM (≈ 61.1 µg/mL); in test [9] it was 6.25 µM (≈ 3.82 µg/mL); in [10], 50 µM (≈ 30.5 µg/mL).

For `Cn1cc(NC(=O)c2cc(NC(=O)c3ccc(/N=N/c4cnc5ccccc5c4)cc3)cn2C)cc1C(=O)NCCN1CCOCC1`, the MIC was > 100 µM in test [6]; > 100 µM in [7]; 25 µM (≈ 15.8 µg/mL) in test [8]; > 100 µM in test [9]; 50 µM (≈ 31.7 µg/mL) in test [10]. For the same compound, the ΔTm in [5] came out at 17 °C.

In the case of `COc1ccc(/C=C/c2ccc(C(=O)Nc3cc(C(=O)Nc4cc(C(=O)NCCN5CCOCC5)n(C(C)C)c4)n(C)c3)nc2)cc1`, the MIC in [1] was 8 µM (≈ 5.12 µg/mL); in test [2] it was 4 µM (≈ 2.56 µg/mL). For the same compound, the ΔTm in test [3] worked out at 16 °C. Besides, in test [4], the Activity is reported as 8.5%.
